From patent US10757935B2, “Composition comprising a pesticide and an alkoxylated ester” (BASF SE, priority 2015, dated 2020)

Experiments:
[1] = test system: powdery mildew (Blumeria graminis f. sp. hordei); assay: Curative greenhouse trial with Epoxiconazole on barley; type: in vivo; conditions: barley leaf segments (F and F-1) on benzimidazole agar, inoculation 2 days prior to application, Epoxiconazole 5 g/ha, adjuvant 50 ml/ha, assessment 14 DAT
Procedure: (§1) The influence of the adjuvants was tested separately in a curative and protective greenhouse trial on barley. In each case, barley was cultivated in a substrate “Frustorder Erde” for three weeks with three plants per pot. Each treatment was replicated 14 times. The adjuvant dose rate in each treatment was 50 ml/ha. The assessment of the infection rate was conducted by a trained biologist.
(§2) The adjuvants used in the trials are di-isononanyl-adipate cyclohexanedicarboxylic acid-isononanol-diester, 1,2-cyclohexanediol-di-isononate, di-isononanyl-3EO-adipate, cyclohexanedicarboxylic acid-isononanol-3EO-diester and 1,2-cyclohexanediol-6EO-di-isononate.
An Epoxiconazole SC 250 was used. Inoculation of the leaves with powdery mildew (Blumeria graminis f. sp. hordei) was done 2 days prior to application of the Epoxiconazole formulation. From the stem, 15 leaf segments were cut off with a length of 10 cm using each the flag leaf (F) and the 2nd leaf (F-1). Altogether, the leaves of each were placed on benzimidazole agar i.e. 0.5% Agar with 40 ppm benzimidazole. The concentration of Epoxiconazole for the leaf application was 5 g/ha. Assessment was done 14 days after treatment (14 DAT) of the efficacy against powdery mildew by counting the mildew pustules per leaf on a length of 7 cm.

[2] = test system: powdery mildew (Blumeria graminis f. sp. hordei); assay: Protective greenhouse trial with Azoxystrobin on barley; type: in vivo; conditions: barley leaf segments (F and F-1) on agar cut 4 h after application, then inoculated, Azoxystrobin 5 g/ha, adjuvant 50 ml/ha, incubation time 10 d
Procedure: as §1, §2
4 h after application with the equivalent of 5 g/ha Azoxystrobin, leaf segments were cut off at a length of 7 cm from the stem. 15 leaves of each the F and the F-1 leaf were placed on agar. After the inoculation with powdery mildew (Blumeria graminis f. sp. hordei), the incubation time was 10 d. The assessment of the infection rate was conducted by a trained biologist.

Row | SMILES | Powdery mildew infestation (%) [1] | Powdery mildew infestation (%) [2]
1 | Fc1ccc([C@]2(Cn3cncn3)O[C@H]2c2ccccc2Cl)cc1 (racemic) [Epoxiconazole] | 33% | –
2 | CO/C=C(/C(=O)OC)c1ccccc1Oc1cc(Oc2ccccc2C#N)ncn1 [Azoxystrobin] | – | 36%
